In PMC7470104, “Discovery of 3,6-disubstituted pyridazines as a novel class of anticancer agents targeting cyclin-dependent kinase 2: synthesis, biological evaluation and in silico insights” (Journal of Enzyme Inhibition and Medicinal Chemistry, 2020):
Where two headings read alike, the source gives them in different places.

Tests used:
T-47D cells [1] = experiment: SRB anti-proliferative assay, T-47D; type: cell-based; conditions: Homo sapiens, T47D, 48 h, read-out: IC50 T-47D
Text: (§1) MDA-MB-231 cell line is classified as a triple-negative/basal-like cell line, which is hormone (estrogen and progesterone)-receptor negative and HER2 negative, whereas T-47D is considered as hormone-receptor positive and HER2 negative breast cancer cell line.
(§2) 2. Anti-proliferative activities
(§3) The three examined human cancer cell lines; T-47D (breast cancer), MDA-MB-231 (breast carcinoma) and SKOV-3 (ovarian cancer), as well as the non-tumorigenic human breast cell line (MCF-10A) have been obtained from American Type Culture Collection (ATCC). The cells were maintained in Dulbecco's modified Eagle's medium (DMEM) supplemented with 10% heat inactivated fetal calf serum (GIBCO), penicillin (100 U/ml) and streptomycin (100 µg/ml) at 37 °C in humidified atmosphere containing 5% CO2. Cells at a concentration of 0.50 x 106 were grown in a 25 cm2 flask in 5 ml of culture medium.
(§4) The anti-proliferative activity of the tested pyridazines 11a-r was measured in vitro using the Sulfo-Rhodamine-B stain (SRB) assay. Briefly, Cells were inoculated in 96-well microtiter plate (5X104 cells/ well) for 24 h before treatment with the tested pyridazines to allow attachment of cell to the wall of the plate. Tested pyridazines were dissolved in DMSO at 1 mg/ml immediately before use and diluted to the appropriate volume just before addition to the cell culture. Different concentrations of tested pyridazines and staurosporine were added to the cells (three wells were prepared for each individual dose). Cells were incubated with the pyridazines for 48 h at 37°C and in atmosphere of 5% CO2. After 48 h cells were fixed, washed, and stained for 30 min with 0.4% (w/v) SRB dissolved in 1% acetic acid. Unbound dye was removed by four washes with 1% acetic acid, and attached stain was recovered with Tris-EDTA buffer. Color intensity was measured in an ELISA reader. The relation between percent of surviving fraction and drug concentration is plotted to get the survival curve for each cell line. The concentration required for 50% inhibition of cell viability (IC50) was calculated. […]

MDA-MB-231 cells [2] = experiment: SRB anti-proliferative assay, MDA-MB-231; type: cell-based; conditions: Homo sapiens, read-out: IC50 MDA-MB-231
Text: as §1, §2, §3, §4

CDK2/CyclinA2 = CDK2/CyclinA2 (Homo sapiens, UniProt P24941); experiment: In vitro CDK2 kinase assay (CDK2/CyclinA2 Kinase Enzyme System)
Text: CDK Kinase Inhibitory Activity

T-47D cells [3] = experiment: Cell cycle analysis by flow cytometry, T-47D; type: cell-based, human; conditions: treated at IC50, 24 h, vs untreated control
Text: (§5) In this study, the efficient anti-proliferative activities of target pyridazines 11a-r towards breast cancer cell lines promoted us to explore and get insights into the plausible cellular mechanisms for these small molecules. To this end, we decided to determine if the target pyridazines exerted their cytotoxic activity through alteration in cell cycle progression and/or induction of apoptosis in both breast cancer T-47D and MDA-MB-231 cells. As a reliable tool, the flow cytometric analysis was utilised to inspect the cell cycle distribution after treatment of T-47D and MDA-MB-231 cells with IC50s of pyridazines 11l and 11m; […]
as §2
The three examined human cancer cell lines; T-47D (breast cancer), MDA-MB-231 (breast carcinoma) and SKOV-3 (ovarian cancer), as well as the non-tumorigenic human breast cell line (MCF-10A) have been obtained from American Type Culture Collection (ATCC). The cells were maintained in Dulbecco's modified Eagle's medium (DMEM) supplemented with 10% heat inactivated fetal calf serum (GIBCO), penicillin (100 U/ml) and streptomycin (100 µg/ml) at 37 °C in humidified atmosphere containing 5% CO2. Cells at a concentration of 0.50 x 106 were grown in a 25 cm2 flask in 5 ml of culture medium. […]
Tested pyridazines were dissolved in […]
The relation between percent of surviving fraction and drug concentration is plotted to get the survival curve for each cell line. The concentration required for 50% inhibition of cell viability (IC50) was calculated.
Breast cancer T-47D and MDA-MB-231 cells were treated with pyridazines 11l and 11m for 24 h (at their IC50 concentration), and then cells were washed twice with ice-cold phosphate buffered saline (PBS). Subsequently, the treated cells were collected by centrifugation, fixed in ice-cold 70% (v/v) ethanol, washed with PBS, re-suspended with 100 μg/mL RNase, stained with 40 μg/mL PI, and analyzed by flow cytometry using FACS Calibur (Becton Dickinson, BD, Franklin Lakes, NJ, USA). The cell cycle distributions were calculated using CellQuest software 5.1 (Becton Dickinson).

MDA-MB-231 cells [4] = experiment: Annexin V-FITC/PI apoptosis assay, MDA-MB-231; type: cell-based, human; conditions: MDA-MB-231, treated at IC50, 48 h; for Annexin V+ cells, late apoptotic phase (upper right quadrant): control 0.24%; for Annexin V+ cells, early apoptotic phase (lower right quadrant): control 0.56%
Method: (§6) Both T-47D and MDA-MB-231 cells were treated with pyridazines 11l and 11m at their IC50s for 48 h. The obtained results have been depicted in Figures 4–6.
(§7) 4. Annexin V-FITC Apoptosis Assay
(§8) Phosphatidylserine externalization was assayed using Annexin V-FITC/PI apoptosis detection kit (BD Biosciences, USA) according to the manufacturer’s instructions. Breast cancer T-47D and MDA-MB-231 cells were cultured to a monolayer then treated with pyridazines 11l and 11m at their IC50 concentration. Briefly, cells were then harvested via trypsinization, and rinsed twice in PBS followed by binding buffer. Moreover, cells were re-suspended in 100 μL of binding buffer with the addition of 1 μL of FITC-Annexin V followed by an incubation period of 30 min at 4 °C. Cells were then rinsed in binding buffer and resuspended in 150 μL of binding buffer with the addition of 1 μL of DAPI (1 μg/μL in PBS). Cells were then analyzed using the flow cytometer BD FACS Canto II and the results were interpreted with FlowJo7.6.4 software (Tree Star, Ashland, OR, USA). […]
(§9) Data are presented as means ± S.D. Individual groups were compared using the two-tailed independent Student’s t-test. Multiple group comparisons were carried out using one-way analysis of variance (ANOVA) followed by the Tukey–Kramer test for post-hoc analysis. Statistical significance was accepted at a level of p < 0.05. All statistical analyses were performed using GraphPad InStat software, version 3.05 (GraphPad Software, Inc., La Jolla, CA, USA). Graphs were sketched using GraphPad Prism software, version 5.00 (GraphPad Software, Inc., La Jolla, CA, USA).

MCF-10A cells = experiment: MTT cytotoxicity towards non-tumorigenic breast cells; type: cell-based, human; conditions: for IC50: read-out: IC50 MCF-10A
MDA-MB-231 cells [5] = experiment: Cell cycle analysis by flow cytometry, MDA-MB-231; type: cell-based, human; conditions: MDA-MB-231, treated at IC50, 24 h, vs untreated control
Text: as §5, §2, §3
The anti-proliferative activity of the tested pyridazines 11a-r was measured in vitro using the Sulfo-Rhodamine-B stain (SRB) assay. Briefly, Cells were inoculated in 96-well microtiter plate (5X104 cells/ well) for 24 h before treatment with the tested pyridazines to allow attachment of cell to the wall of the plate. Tested pyridazines were dissolved in DMSO at 1 mg/ml immediately before use and diluted to the appropriate volume just before addition to the cell culture. Different concentrations of tested pyridazines and staurosporine were added to the cells (three wells were prepared for each individual dose). Cells were incubated with the pyridazines for 48 h at 37°C and in atmosphere of 5% CO2. After 48 h cells were fixed, washed, and stained for 30 min with 0.4% (w/v) SRB dissolved in 1% acetic acid. Unbound dye was removed by four washes with 1% acetic acid, and attached stain was recovered with Tris-EDTA buffer. Color intensity was measured in an ELISA reader. The relation between percent of surviving fraction and drug concentration is plotted to get the survival curve for each cell line. The concentration required for 50% inhibition of cell viability (IC50) was calculated.
Breast cancer T-47D and MDA-MB-231 cells were treated with pyridazines 11l and 11m for 24 h (at their IC50 concentration), and then cells were washed twice with ice-cold phosphate buffered saline (PBS). […]

T-47D cells [6] = experiment: Annexin V-FITC/PI apoptosis assay, T-47D; type: cell-based, human; conditions: treated at IC50, 48 h; for Annexin V+ cells, late apoptotic phase (upper right quadrant): control 0.19%; for Annexin V+ cells, early apoptotic phase (lower right quadrant): control […]
Method: as §6, §7, §8, §9

[7] = tested on: human colon cancer HT-29 cell line; design: method as in PMID 23307426; conditions: in words; cited from earlier work
VEGFR-2 = tested on: VEGFR-2; design: method as in PMID 31852269; conditions: in words; cited from earlier work
[8] = SRB assay, breast cancer T-47D, mean ± SD of three experiments
[9] = SRB assay, 48 h, breast cancer MDA-MB-231, mean ± SD of three experiments

## CCCCNc1nnc(C(=O)NC2C3CC4CC(C3)CC2C4)cc1C(F)(F)F (stereo not shown) [11b]
T-47D cells [1]; [8]
  IC50: 1.37 ± 0.04 µM
other
  melting point: 110 to 111 °C

## O=C(NC1C2CC3CC(C2)CC1C3)c1cc(C(F)(F)F)c(N2CCOCC2)nn1 (stereo not shown) [11d]
MDA-MB-231 cells [2]; [9]
  IC50: 2.18 ± 0.07 µM
other
  melting point: 177 to 178 °C

## O=C(NC1C2CC3CC(C2)CC1C3)c1cc(C(F)(F)F)c(NCc2ccccc2C(F)(F)F)nn1 (stereo not shown) [11e]
T-47D cells [1]; [8]
  IC50: 2.62 ± 0.08 µM
CDK2/CyclinA2
  IC50: 0.151 ± 0.00616 µM

## CC(C)(C)NC(=O)c1cc(C(F)(F)F)c(NC2CCCC2)nn1 [11f]
T-47D cells [1]; [8]
  IC50: 1.94 ± 0.06 µM
other
  melting point: 62 to 63 °C

## CC(C)(C)NC(=O)c1cc(C(F)(F)F)c(N2CCOCC2)nn1 [11g]
other
  melting point: 121 to 122 °C

## CC(C)(C)NC(=O)c1cc(C(F)(F)F)c(NCc2ccccc2C(F)(F)F)nn1 [11h]
T-47D cells [1]; [8]
  IC50: 1.6 ± 0.05 µM
MDA-MB-231 cells [2]; [9]
  IC50: 2.44 ± 0.08 µM
other
  melting point: 132 to 133 °C
CDK2/CyclinA2
  IC50: 0.0438 ± 0.00179 µM

## CCCCNC(=O)c1cc(C(F)(F)F)c(N2CCOCC2)nn1 [11i]
T-47D cells [1]; [8]
  IC50: 0.44 ± 0.01 µM

## O=C(NCC1CCOCC1)c1cc(C(F)(F)F)c(NCC2CC2)nn1 [11l]
T-47D cells [3]
  Increase in sub-G1 phase: 13.8 fold
  Rise in cell population of G2/M phase: 2.7 fold
MDA-MB-231 cells [4]
  Annexin V+ cells, late apoptotic phase (upper right quadrant): 23.60%
  Annexin V+ cells, early apoptotic phase (lower right quadrant): 3.38%
T-47D cells [1]; [8]
  IC50: 1.57 ± 0.05 µM
MCF-10A cells; IC50 for MCF-10A / IC50 average for (T-47D and MDA-MB-231)
  Mean tumour selectivity index (S. I.): 13.7
MCF-10A cells; MTT assay, non-tumorigenic human breast MCF-10A cells
  IC50: 19.6 ± 0.38 µM
MDA-MB-231 cells [2]; [9]
  IC50: 1.3 ± 0.04 µM
CDK2/CyclinA2
  IC50: 0.0556 ± 0.00227 µM
MDA-MB-231 cells [5]
  Increase in cell population of G2/M phase: 4.1 fold
  Increase in sub-G1 phase: 18.9 fold
T-47D cells [6]
  Increase in Annexin V+ apoptotic cells (UR + LR) with respect to untreated control: about 33 fold
  Annexin V+ cells, late apoptotic phase (upper right quadrant): 27.2%
  Annexin V+ cells, early apoptotic phase (lower right quadrant): 6.39%

## O=C(NCC1CCOCC1)c1cc(C(F)(F)F)c(N2CCOCC2)nn1 [11m]
T-47D cells [3]
  Increase in sub-G1 phase: 9.5 fold
  Rise in cell population of G2/M phase: 2.5 fold
MDA-MB-231 cells [4]
  Annexin V+ cells, late apoptotic phase (upper right quadrant): 15.56%
  Annexin V+ cells, early apoptotic phase (lower right quadrant): 8.19%
T-47D cells [1]
  IC50: 0.43 ± 0.01 µM
MCF-10A cells; Homo sapiens, MCF-10A
  IC50: 11.4 ± 0.22 µM
MDA-MB-231 cells [2]; MDA-MB-231, 48 h
  IC50: 0.99 ± 0.03 µM
MDA-MB-231 cells [5]
  Increase in cell population of G2/M phase: 3.8 fold
  Increase in sub-G1 phase: 15.2 fold
T-47D cells [6]
  Increase in Annexin V+ apoptotic cells (UR + LR) with respect to untreated control: ~21 fold
  Annexin V+ cells, late apoptotic phase (upper right quadrant): 10.34%
  Annexin V+ cells, early apoptotic phase (lower right quadrant): 11.36%

## O=C(NCc1ccccc1C(F)(F)F)c1cc(C(F)(F)F)c(NCCO)nn1 [11n]
MDA-MB-231 cells [2]; [9]
  IC50: 2.94 ± 0.09 µM

## CCOC(=O)c1ccc(-c2ccc(N(C)C)nn2)cc1 [III]
[7]
  Cytotoxic activity towards HT-29: excellent cytotoxic activity

## COc1ccc(Nc2ccc(NC(=O)Nc3ccc(Cl)c(C(F)(F)F)c3)cc2)nn1 [IV]
VEGFR-2
  IC50 VEGFR-2: nanomolar range
